The source made the active and inactive calls. No cut-off for these calls is given here.

This note sets out measurements from ChEMBL document CHEMBL1144675, “Stereospecific synthesis and bio-activity of novel beta(3)-adrenoceptor agonists and inverse agonists” (Bioorg Med Chem, 2008).

The target of assay [1] is T1, Peroxisome proliferator-activated receptor alpha (Mus musculus) (UniProt P23204).
T1 sequence (whole entry): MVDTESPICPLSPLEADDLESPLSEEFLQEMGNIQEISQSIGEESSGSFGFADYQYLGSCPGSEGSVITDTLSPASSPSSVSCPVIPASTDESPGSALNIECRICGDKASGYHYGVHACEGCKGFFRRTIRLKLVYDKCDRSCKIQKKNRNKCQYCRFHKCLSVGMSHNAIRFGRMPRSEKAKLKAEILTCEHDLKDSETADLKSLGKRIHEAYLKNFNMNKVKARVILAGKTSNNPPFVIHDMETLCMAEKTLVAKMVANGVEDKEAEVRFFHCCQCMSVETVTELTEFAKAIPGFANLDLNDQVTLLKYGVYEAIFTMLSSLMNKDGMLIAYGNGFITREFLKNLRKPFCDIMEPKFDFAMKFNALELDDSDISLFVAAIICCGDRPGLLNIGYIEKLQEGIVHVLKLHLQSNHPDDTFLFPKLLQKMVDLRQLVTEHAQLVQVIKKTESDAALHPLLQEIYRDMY
The assay is described as follows: Agonist activity at mouse PPARalpha receptor in monkey COS7 cells assessed as activation of CAT reporter gene at 50 uM by transactivation assay relative to Wy,14-643. The format is functional, cell-based. The settings on record: COS-7.

Assay [2] has as its target Beta-1 adrenergic receptor (Homo sapiens) (UniProt P08588). The experiment in a line: Displacement of [3H]dihydroalprenolol from human adrenergic beta-1 receptor expressed in CHO cells at 10 uM. The format is cell-based. (In general: Loss of bound radioactivity is the signal in a displacement assay; it reports binding, not function.)
Assay [3] deals with Beta-2 adrenergic receptor (Homo sapiens) (UniProt P07550). The assay is described as follows: Displacement of [3H]dihydroalprenolol from human adrenergic beta-2 receptor expressed in CHO cells at 10 uM. The format is cell-based.
Sequence of Beta-2 adrenergic receptor (Homo sapiens) (P07550 whole entry, looked up): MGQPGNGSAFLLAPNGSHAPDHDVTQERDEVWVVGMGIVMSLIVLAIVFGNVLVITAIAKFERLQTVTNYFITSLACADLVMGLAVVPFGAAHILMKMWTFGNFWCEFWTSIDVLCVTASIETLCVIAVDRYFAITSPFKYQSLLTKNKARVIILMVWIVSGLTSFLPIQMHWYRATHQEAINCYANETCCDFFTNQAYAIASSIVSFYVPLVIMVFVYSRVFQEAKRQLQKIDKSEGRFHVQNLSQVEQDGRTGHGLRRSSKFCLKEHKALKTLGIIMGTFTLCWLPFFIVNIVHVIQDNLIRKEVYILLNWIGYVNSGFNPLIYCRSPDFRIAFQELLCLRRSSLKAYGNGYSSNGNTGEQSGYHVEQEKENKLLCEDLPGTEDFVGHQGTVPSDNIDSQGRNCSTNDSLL
Assay [4] addresses T1, Peroxisome proliferator-activated receptor alpha (Mus musculus). The assay is described as follows: Agonist activity at mouse PPARalpha receptor in monkey COS7 cells assessed as activation of CAT reporter gene at 150 uM by transactivation assay relative to Wy,14-643. The settings on record: COS-7. The format is functional, cell-based.
Assay [5] has the same target. The assay is described as follows: Agonist activity at mouse PPARalpha receptor in monkey COS7 cells assessed as activation of CAT reporter gene at 300 uM by transactivation assay relative to Wy,14-643. The format is functional, cell-based. The settings on record: COS-7.
Assay [6] addresses Beta-3 adrenergic receptor (Rattus norvegicus) (UniProt P26255). The experiment in a line: Antagonist activity at adrenergic beta-3 receptor in rat proximal colon assessed as colon motility. The assay is classed as functional, tissue-based.
Assay [7] deals with T2, Beta-3 adrenergic receptor (Homo sapiens, UniProt P13945). The experiment in a line: Agonist activity at human adrenergic beta-3 receptor expressed in CHO cells assessed as cAMP levels by DELFIA method. The format is functional, cell-based. A general note: Changes in cAMP serve as a functional read-out for many G protein-coupled receptors.
T2 sequence (P13945 whole entry): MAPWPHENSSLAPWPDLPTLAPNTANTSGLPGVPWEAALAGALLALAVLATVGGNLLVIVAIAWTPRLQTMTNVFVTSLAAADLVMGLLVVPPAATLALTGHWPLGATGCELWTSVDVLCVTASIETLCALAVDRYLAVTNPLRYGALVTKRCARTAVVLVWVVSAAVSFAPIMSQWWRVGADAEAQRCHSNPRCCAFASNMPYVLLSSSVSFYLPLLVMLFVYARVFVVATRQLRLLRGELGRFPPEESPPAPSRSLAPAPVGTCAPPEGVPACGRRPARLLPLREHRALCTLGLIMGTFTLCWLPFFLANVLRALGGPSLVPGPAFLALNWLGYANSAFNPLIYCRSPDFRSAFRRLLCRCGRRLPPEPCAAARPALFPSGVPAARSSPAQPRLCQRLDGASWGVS
In assay [8] the target is T2, Beta-3 adrenergic receptor.
Description: Agonist activity at human adrenergic beta3 receptor expressed in CHO cells assessed as [3H]cAMP levels by radiolabeled ligand based assay
The target in assay [9] is T1, Peroxisome proliferator-activated receptor alpha (Mus musculus). The assay is described as follows: Agonist activity at mouse PPARalpha receptor in monkey COS7 cells assessed as activation of CAT reporter gene at 2 uM by transactivation assay relative to Wy,14-643. The assay is classed as functional, cell-based. The settings on record: COS-7. (In general: In a reporter assay the amount or activity of a reporter protein is the signal.)

Sequence of Beta-1 adrenergic receptor (Homo sapiens) (P08588 whole entry, looked up): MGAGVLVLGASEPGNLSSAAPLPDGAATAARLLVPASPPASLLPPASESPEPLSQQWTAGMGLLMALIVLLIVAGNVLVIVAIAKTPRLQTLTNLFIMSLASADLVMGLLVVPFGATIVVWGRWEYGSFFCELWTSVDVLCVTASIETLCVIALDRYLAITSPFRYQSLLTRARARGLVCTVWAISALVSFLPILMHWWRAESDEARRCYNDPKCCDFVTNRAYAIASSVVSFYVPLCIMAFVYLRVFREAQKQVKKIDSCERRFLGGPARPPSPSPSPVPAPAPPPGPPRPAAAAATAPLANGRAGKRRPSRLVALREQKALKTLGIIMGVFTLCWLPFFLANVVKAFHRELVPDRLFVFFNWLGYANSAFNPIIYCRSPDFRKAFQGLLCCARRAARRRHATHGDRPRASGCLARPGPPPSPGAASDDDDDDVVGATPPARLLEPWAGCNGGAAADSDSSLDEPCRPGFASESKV
Sequence of Beta-3 adrenergic receptor (Rattus norvegicus) (P26255 whole entry): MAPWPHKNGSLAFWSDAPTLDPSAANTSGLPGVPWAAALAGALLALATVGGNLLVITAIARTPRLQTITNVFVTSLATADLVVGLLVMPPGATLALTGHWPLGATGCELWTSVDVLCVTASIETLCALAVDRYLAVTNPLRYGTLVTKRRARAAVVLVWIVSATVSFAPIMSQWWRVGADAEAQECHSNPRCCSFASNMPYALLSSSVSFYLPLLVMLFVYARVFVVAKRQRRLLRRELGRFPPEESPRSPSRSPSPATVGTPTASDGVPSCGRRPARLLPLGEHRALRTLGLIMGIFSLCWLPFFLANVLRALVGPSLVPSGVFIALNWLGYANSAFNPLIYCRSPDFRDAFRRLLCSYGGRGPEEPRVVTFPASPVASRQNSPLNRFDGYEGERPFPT

With `CC(C)(Oc1ccc(CCNC[C@@H](O)c2ccccc2)cc1)C(=O)O`, the Activity in [1] turned out to be 1.7%; in assay [4], 1.5%; in [5] it was 2.1%. Further, the inhibition came out at 13% in [2] and 5% in [3].
`CC(C)(Oc1ccc(CCNC[C@H](O)c2ccccc2)cc1)C(=O)O`: the Activity was 1.3% in assay [1], 1.5% in assay [4] and 1.5% in assay [5]. In addition, the inhibition is 8% in assay [2] and 1% in [3].
On to `C[C@@H](Oc1ccc(CCNC[C@@H](O)c2ccccc2)cc1)C(=O)O` (single isomer, unassigned), for which the Activity in [1] was 1.3%; in [4], 2%; in assay [5], 3.6%. Also, the results for the inhibition in assay [2] and in assay [3] were 10% and 1%, respectively. The result in assay [6] was Active. Also, the EC50 in [7] is 136 nM.
As for `CCOC(=O)C(C)(C)Oc1ccc(Cl)cc1`, the Activity came to 12.6% in assay [1], 11% in [4] and 89.9% in assay [5].
As to `C[C@H](Oc1ccc(CCNC[C@H](O)c2ccccc2)cc1)C(=O)O` (single isomer, unassigned), the Activity in assay [1] was found to be 1.6%; in assay [4], 1.8%; in [5], 1.5%. For the same compound, the inhibition is 28% in [2] and 1% in [3]. Moreover, the concentration giving a half-maximal response (EC50) in assay [7] was 2.7 nM.
On to `CC(Oc1ccc(CCNCC(O)c2ccccc2)cc1)C(=O)O` (racemic), for which the Activity in [1] was determined as 1.5%; in [4], 1.9%; in [5] it was 1.8%. Moreover, the values for the inhibition in assay [2] and in [3] were 37% and 24%, respectively. Also, the half-maximal effective concentration (EC50) in [7] stood at 3.8 nM.
On to `C[C@@H](Oc1ccc(CCNC[C@H](O)c2ccccc2)cc1)C(=O)O`, for which the figures for the Activity in assay [1], in assay [4] and in [5] were 1.1%, 1.5% and 2.6%, respectively. Moreover, the inhibition stood at 6% in assay [2] and 2% in [3]. Also, in assay [7], the EC50 came out at 235 nM.
For the compound `C[C@H](Oc1ccc(CCNC[C@@H](O)c2ccccc2)cc1)C(=O)O`, the Activity is 1% in [1], 1% in assay [4] and 1.8% in assay [5]. Moreover, the inhibition in assay [2] was 14%; in assay [3], 9%. Also, in assay [6], the result was Active. In addition, the concentration for a half-maximal effect (EC50) in [7] turned out to be 181 nM.
In the case of `CC(C)(Oc1ccc(Cl)cc1)C(=O)O`, the Activity in assay [5] was determined as 86.5%.
As to `CC(C)(Oc1ccc(CCNCC(O)c2ccccc2)cc1)C(=O)O` (racemic), the results for the Activity in assay [1], in assay [4] and in assay [5] were 2%, 1.7% and 1.8%, respectively. Also, the results for the inhibition in assay [2] and in assay [3] were 18% and 24%, respectively. Besides, in assay [7], the EC50 was determined as 4.9 nM.
For the compound `CNC[C@H](O)c1ccc(O)c(O)c1` [EPINEPHRINE], the half-maximal effective concentration (EC50) in assay [8] came out at 49 nM; in assay [7], 31 nM.
With `Cc1cccc(Nc2cc(Cl)nc(SCC(=O)O)n2)c1C`, in [9], the Activity is 100%.

By inhibition is commonly meant the share of the control response that was lost under treatment. A word on the EC50: it is the concentration giving half of the maximal effect.
